Literature values in PMC3411352 (Biopolymers, 2011).
“And” between values parts separate entries of the source, which are not always exact repeats. Equal entries are not always repeated. Where two headings read alike, the source gives them in different places.

Tests used:
rat κ opioid receptors [1] = target: T1, rat κ opioid receptors (Rattus norvegicus, UniProt P34975); conditions: relative to Dyn A (1-13)NH2 (0% control)
rat κ opioid receptors [2] = target: T1, rat κ opioid receptors; conditions: for Ki: read-out: Ki ± SEM κ, κ opioid receptors
κ opioid receptors [3] = target: κ opioid receptors
rat μ opioid receptors = rat μ opioid receptors (Rattus norvegicus, UniProt P33535); conditions: read-out: Ki ± SEM μ
Sequence of rat μ opioid receptors (P33535 whole entry): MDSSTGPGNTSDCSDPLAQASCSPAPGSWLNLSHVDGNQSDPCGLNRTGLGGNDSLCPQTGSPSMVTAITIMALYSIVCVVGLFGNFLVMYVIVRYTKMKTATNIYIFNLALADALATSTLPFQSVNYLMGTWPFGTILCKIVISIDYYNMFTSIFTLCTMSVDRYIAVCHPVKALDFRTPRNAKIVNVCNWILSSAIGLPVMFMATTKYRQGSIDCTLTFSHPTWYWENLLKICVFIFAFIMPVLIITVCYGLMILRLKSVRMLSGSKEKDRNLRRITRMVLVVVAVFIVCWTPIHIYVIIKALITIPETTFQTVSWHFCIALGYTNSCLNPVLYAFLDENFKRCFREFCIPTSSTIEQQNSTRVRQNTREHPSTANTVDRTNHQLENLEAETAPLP

κ opioid receptors [4] = conditions: selectivity

T1 sequence (P34975 whole entry): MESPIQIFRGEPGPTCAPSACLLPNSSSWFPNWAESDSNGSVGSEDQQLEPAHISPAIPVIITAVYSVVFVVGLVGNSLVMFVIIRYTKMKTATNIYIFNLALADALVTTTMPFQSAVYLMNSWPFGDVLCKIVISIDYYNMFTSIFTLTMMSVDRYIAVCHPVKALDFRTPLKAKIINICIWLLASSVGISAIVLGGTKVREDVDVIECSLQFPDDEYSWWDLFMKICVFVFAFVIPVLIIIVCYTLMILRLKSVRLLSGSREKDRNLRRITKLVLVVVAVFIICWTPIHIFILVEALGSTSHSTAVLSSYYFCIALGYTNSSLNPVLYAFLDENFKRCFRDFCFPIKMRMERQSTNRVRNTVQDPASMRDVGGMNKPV

Which “AC % control @ 10 μM” value (rat κ opioid receptors [1]) does the source give for “Ac[Phe^1,2,3,Arg^4,D-Ala^8]Dyn A(1-11)-NH2 [Compound 1]” here?
The value was 88 ± 8 % control.

And the Ki (rat κ opioid receptors [2])?
The Ki was 10 ± 3 nM.

Which results are given for [(2S)-Mdp^1]Dyn A-(1-11)NH2 [Dynantin]?
Ki (κ opioid receptors [3]; read-out: Ki (κ)): 0.82 nM; Ki ratio (κ/μ/δ) (κ opioid receptors [3]; selectivity): 1/259/198

For [NMePhe^1]arodyn [Compound 2], which “AC % control @ 10 μM” value (rat κ opioid receptors [1]) is on record?
Its value is 86 ± 1 % control.

And the Ki (rat μ opioid receptors)?
The Ki was 5060 ± 790 nM.

What about the Ki (rat κ opioid receptors [2]) of the same substance?
Its Ki is 4.6 nM and 4.56 nM.

And the “Ki ratio (μ/κ)” value (rat κ opioid receptors [2]; selectivity κ over μ)?
The value was 1100.

For [Pro^3]Dyn A-(1-11)NH2, which “Ki ratio (κ/μ/δ)” value (κ opioid receptors [4]) is on record?
Its value is 1/2110/3260.
